From patent publication US4794169A, “Pentapeptides with cell growth regulatory effects and a process for the preparation thereof” (Bio-Tech A/S, priority 1985, dated 1988)
Square brackets hold non-standard residues; d marks the D form. Peptide text beside a SMILES is read from it. pGlu = O=C1CC[C@@H](C(=O)O)N1

Test system: mouse epidermal mitotic rate
Assay: Change in mouse epidermal mitotic rate after intraperitoneal injection (Colcemid method)
Assay type: in vivo
Details: mouse epidermis, first three hours after i.p. injection, vs control animals from same cage
Experimental: In the following Table 1 in vivo results (change in mouse epidermal mitotic rate) have been described as example for four different new pentapeptides. The epidermal mitotic rate was measured for the first three hours after intraperitoneal injection of the new pentapeptides. Mitotic rate was determined by means of "Colcemid" (Demecolcine). A reduced rate was determined as a percentage in comparison with control animals from the same cage.

`NC(=O)CC[C@H](NC(=O)[C@@H]1CCC(=O)N1)C(=O)N[C@@H](CC(=O)O)C(=O)N[C@@H](CO)C(=O)NCC(=O)O` [Compound 2, pGlu--Gln--Asp--Ser--Gly] ([pGlu]QDSG-OH) was tested, and the “Decrease in mitotic rate %” value (10^-11 moles of peptide injected per mouse) was 39%.
For `O=C(O)CC[C@H](NC(=O)[C@@H]1CCC(=O)N1)C(=O)N[C@@H](CC(=O)O)C(=O)N[C@@H](CO)C(=O)NCC(=O)O` [Compound 1, pGlu--Glu--Asp--Ser--Gly] ([pGlu]EDSG-OH), the “Decrease in mitotic rate %” value (10^-11 -10^-14 moles of peptide injected per mouse) was 40-44%.
For `C[C@H](NC(=O)[C@H](CC(=O)O)NC(=O)[C@H](CCC(=O)O)NC(=O)[C@@H]1CCC(=O)N1)C(=O)NCC(=O)O` [Compound 3, pGlu--Glu--Asp--Ala--Gly] ([pGlu]EDAG-OH), the “Decrease in mitotic rate %” value (10^-13 moles of peptide injected per mouse) was 36%.
